The values that follow come from patent publication US10675267B2, “Methods for detection and eradication of myeloid leukemia stem cells” (priority 2015, dated 2020).

The structures appear in SMILES notation. “Also recorded” adds a separate entry of the source.

The subject of experiment [1] is AML-37 human LSC engrafted in Rag2−/−γc−/− mice. In words: sAML PRIMAGRAFT model AML-37: FACS engraftment analysis and serial transplantation. In kind it is in vivo, mouse. Here is the method: All animal studies were performed in accordance with UCSD and NIH-equivalent ethical guidelines and were approved by the Institutional Animal Care and Use Committee (IACUC protocol # S06015). For all in vivo experiments, animals of both genders were utilized. Three AML PRIMAGRAFT™ models were established by transplanting AML LSC-enriched cell fractions (either CD34-selected or FACS-purified stem or progenitor cell fractions from primary patient samples) into immunocompromised Rag2^−/−γc^−/−[20] or NOD/SCID-IL2RG mice (Jackson Laboratory) constitutively expressing human SCF, GM-CSF and IL-3 (NSGS) (FIGS. 8A-8D). For all transplantations into Rag2^−/−γc^−/− animals, neonatal mice were transplanted with human cells intrahepatically as previously described, and for all transplantations into NSGS animals, sublethally irradiated (300 Rad) adult (6-8 weeks old) mice were transplanted intravenously with 1-2×10^5 CD34^+ human cells.
For in vivo treatments, a 10 mg/mL stock solution of 17S-FD-895 solubilized in DMSO was used. After randomization, AML-engrafted mice were dosed intravenously with 17S-FD-895 (5-10 mg/kg) or vehicle (for AML-08, vehicle control=15% DMSO in PBS; for AML-37, vehicle control=20% DMSO in PBS) three times over a two-week period, with the first dose given on day 1, the second on day 7, and the third on day 14. For preparation of RNA from human LSC-enriched populations, single cell suspensions from spleen and bone marrow were CD34 double-selected (over two LS selection columns, Miltenyi) and 1-2×10^5 cells were collected in lysis buffer or pooled according to treatment group for serial transplantation assays.
Mice transplanted with 1-2×10^5 CD34^+ AML LSC-enriched fractions or no-transplant controls were screened for human hematopoietic cell engraftment (CD45^+ cells) in peripheral blood by FACS starting at 7-10 weeks post transplant. At 7-28 weeks post-transplant (7-36 weeks old), mice were euthanized, and peripheral blood and single cell suspensions of hematopoietic organs were analyzed for human cell engraftment by FACS. Total cell suspensions from bone marrow and spleen were either transplanted immediately or CD34-selected for transplant into secondary recipient mice (1-2×10^5 cells per animal) to expand the cells in vivo. […] Secondary recipient mice were euthanized after 8-23 weeks, and cell suspensions from bone marrow and spleen were CD34-selected for transplant into tertiary recipients for 17S-FD-895 treatment.
The 17S-FD-895 dosing regimen was selected as the maximum number of doses possible for the treatment of three experimental groups with the amount of synthesized compound that was available, and is consistent with weekly IV dosing regimens used in clinical trials of spliceosome inhibitory compounds in patients with solid tumors. Animals were euthanized within two hours after delivery of the final dose of 17S-FD-895, and peripheral blood, spleens and bone marrows were collected for analysis of total human cell and stem and progenitor cell engraftment, and for RNA extraction for splice isoform-specific qRT-PCR.
Flow cytometric analysis was performed on single cell suspensions from each hematopoietic tissue essentially as for primary patient samples, and frequencies of total live human CD45^+ cells, and CD45^+CD34^+CD38^− Lin^− (stem) and CD45^+CD34^+CD38^+ Lin^− (progenitor) cells were determined in each tissue. Analysis of progenitor cell subpopulations was performed for AML-37, with GMP identified as CD123^+CD45RA^+, CMP as […] and megakaryocyte-erythroid progenitors (MEP) as […]. Inclusion/exclusion criteria were pre-established based on minimum CD45^+ cell engraftment rates of 1% in peripheral blood, as determined by previous PRIMAGRAFT™ experiments. […]

For a further experiment, the system named is KG1a cells. As to the kind of experiment: In vitro splicing of endogenous transcripts (qRT-PCR) in KG1a. In kind it is cell-based. The note with it: KG1a AML cells, compared with MOLM-13. Here is the method:
For qRT-PCR analysis of relative total mRNA expression levels or splice isoform-specific expression analyses, cDNA was synthesized using 50 ng-1 […] reaction volumes using the First-Strand SUPERSCRIPT™ III Reverse Transcriptase Supermix (Life Technologies) followed by incubation with RNase H according to the manufacturer's protocol and as described previously (Abrahamsson et al., 2009; Crews et al., 2015). All cDNA products were stored at −20° C. Splice isoform-specific primers for PTK2B-202 were designed to bind to unique exon junctions for this transcript, which lacks exon 24. All primers (Supplemental Experimental Procedures Table) were diluted to 10 ∝M working dilutions in DNase/RNase-free water. qRT-PCR was performed in duplicate using cDNA (1 ∝Λ reverse transcription product per reaction) on an iCycler (Bio-Rad, Hercules, Calif.) using SYBR® GREENER™ Super Mix (Life Technologies) in 25-∝A volume reactions containing 0.2 ∝M of each forward and reverse primer. Cycling conditions were as follows: 50° C. for 2 minutes, then 95° C. for 8 minutes and 30 seconds, followed by 40 cycles of 95° C. for 15 seconds and 60° C. for 60 seconds. […] For standard qRT-PCR, human HPRT mRNA transcript levels were used to normalize Ct values obtained for each gene, and relative expression levels were calculated using the 2-ddCt method. […]

With `CC[C@H](OC)[C@@H](C)[C@H]1O[C@@H]1[C@@H](O)[C@H](C)/C=C/C=C(\C)[C@H]1OC(=O)C[C@H](O)CC[C@@](C)(O)[C@@H](OC(C)=O)/C=C/[C@@H]1C` (stereo in doubt) [Formula 17S-FD-895, 17S-FD-895], the “common myeloid progenitor (CMP) frequency” value in experiment [1] (AML-37, 5 or 10 mg/kg) is given as “slight increase”. Further, the GMP frequency entry in experiment [1] (AML-37, 5 or 10 mg/kg, hematopoietic tissues) is “reduced GMP frequency; also recorded: significantly reduced”. Further, in experiment [1] (recipients of CD34+ cells from 10 mg/kg group versus vehicle controls), the “human leukemic burden in serial transplant recipients” value is “marked reduction; also recorded: marked decrease”. The “reduction of human stem cells (CD45+CD34+CD38− Lin−)” value in experiment [1] (spleens, 10 mg/kg group versus vehicle controls, p<0.05) worked out at 68%. Moreover, in experiment [1] (spleens, 10 mg/kg group versus vehicle controls, p=0.08), the “reduction of human progenitor cells (CD45+CD34+CD38+ Lin−)” value came to 80%. In addition, the “human HSPC frequency” value in experiment [1] (spleens, 10 mg/kg versus vehicle) is “decrease in human HSPC frequency”. The “DNAJB1 intron 2 levels” value in the experiment with KG1a cells was “to a lesser extent”.
